Each compound was assayed on Human primary T cells (assay: IL-2 ELISA, human primary T cell, anti-CD3+CD28 stimulation). Details: IL-2 quantified by ELISA; human primary T cells stimulated with αCD3 and αCD28, 24 hours.
Assay type: cell-based
Description: Human primary T cell isolation and culture: Human primary T cells were prepared as follows. Whole blood was obtained from a healthy volunteer, mixed 1:1 with PBS, layered on to Ficoll Hypaque (Amersham Pharmacia Biotech, Piscataway, N.J., Catalog #17-1440-03) in 2:1 blood/PBS:ficoll ratio and centrifuged for 30 minutes at 4° C. at 1750 rpm. The cells at the serum: ficoll interface were recovered and washed twice with 5 volumes of PBS. These freshly isolated human peripheral blood mononuclear cells were cultured in Yssel's medium containing 40 U/mL IL2 in a flask pre-coated with 1 μg/mL αCD3 and 5 μg/mL αCD28 (Anti-Human CD3, BD Pharmingen Catalog #555336, Anti-Human CD28, Beckman Coulter Catalog #IM1376). The cells were stimulated for 3-4 days, then transferred to a fresh flask and maintained in RPMI (RPMI-1640 with L-Glutamine; Mediatech, Inc., Herndon Va., cat. #10-040-CM) with 10% FBS and 40 U/mL IL-2. The primary T-cells were then washed twice with PBS to remove the IL-2.
Primary T cell stimulation and IL2 ELISA: Human primary T cells (100,000 cells per well) were pre-incubated with or without test compound in Yssel's medium for 1 hour at 37° C. Cells were then stimulated by transferring them to round-bottom 96-well plates pre-coated with 1 μg/ml αCD3 and 5 μg/ml αCD28. For counter assay, cells were instead stimulated by adding 8× stock solutions of PMA and ionomycin in Yssels (for final concentrations of 0.5 ng/ml PMA and 0.1 uM ionomycin, both from Calbiochem). Cells were incubated at 37° C. for 24 hours before 100 μL supernatants were harvested for quantification of IL-2 by ELISA using Human IL-2 Duoset ELISA Kit from R and D Systems, Cat. # DY202E.
Work on `CN1C(C)(C)CC(Nc2nc(Nc3cc(F)cc(-n4nnn(C)c4=O)c3)ncc2F)CC1(C)C` [I-22, 1-(3-(4-(1,2,2,6,6-pentamethylpiperidin-4-ylamion)-5fluoropyrimidin-2-ylamino)-5-fluorophenyl)-4-methyl-1H-tetrazol-5(4H)-one] yielded an IC50 of less than 500 nM. `CC(C)Oc1ccc(Nc2ncc(F)c(NC3CC(C)(C)N(C)C(C)(C)C3)n2)cc1-n1nnn(C)c1=O` [I-10, 5-fluoro-n2-{4-isopropoxy-[3-(4-methyl)-1,2,3,4-tetrazol-5-one-1-yl]}phenyl-n4-(1,2,2,6,6-pentamethylpiperidin-4-yl)-2,4-pyrimidinediamine] was tested, and the IC50 was less than 500 nM.

Same assay, conditions: T-cell; IL-2 quantified by ELISA; human primary T cells stimulated with αCD3 and αCD28, 24 hours
`Cc1c(C(=O)O)cc(Nc2ncc(F)c(NC3CC(C)(C)NC(C)(C)C3)n2)cc1-n1nnn(C)c1=O` [I-61] showed an IC50 of 3000 to 25000 nM. With `CC(C)n1nnn(-c2cc(Nc3ncc(F)c(NC4CC(C)(C)N(C)C(C)(C)C4)n3)ccc2F)c1=O` [I-5, 5-fluoro-n2-{4-fluoro-[3-(4-isopropyl)-1,2,3,4-tetrazol-5-one-1-yl]}phenyl-n4-(1,2,2,6,6-pentamethylpiperidin-4-yl)-2,4-pyrimidinediamine] the IC50 was 510 to 2990 nM. `CNC(=O)c1cc(Nc2ncc(F)c(NC3CC(C)(C)N(C)C(C)(C)C3)n2)cc(-n2nnn(C)c2=O)c1C` [I-64, 5-(5-fluoro-4-(1,2,2,6,6-pentamethylpiperidin-4-ylamino)pyrimidin-2-ylamino)-N,2-dimethyl-3-(4-methyl-5-oxo-4,5-dihydro-1H-tetrazol-1-yl)benzamide] gave an IC50 of less than 500 nM. In the case of `CC(C)n1nnn(-c2cc(Nc3ncc(F)c(NC4CC(C)(C)NC(C)(C)C4)n3)ccc2F)c1=O` [I-6], the IC50 is reported as 510 to 2990 nM. For `Cn1nnn(-c2cc(Nc3ncc(F)c(NC4CC(C)(C)NC(C)(C)C4)n3)cc(C(F)(F)F)c2C2CC2)c1=O` [I-39, N2-{4-cyclopropyl-5-trifluoromethyl-[3-(4-methyl)-1,2,3,4-tetrazol-5-one-1-yl]}phenyl-5-fluoro-N4-(2,2,6,6-tetramethylpiperidin-4-yl)2,5-pyrimidinediamine], the IC50 was less than 500 nM. `CN1C(C)(C)CC(Nc2nc(Nc3ccc(F)c(-n4nnn(C)c4=O)c3)ncc2F)CC1(C)C` [I-3, 5-fluoro-n2-{4-fluoro-[3-(4-methyl)-1,2,3,4-tetrazol-5-one-1-yl]}phenyl-n4-(1,2,2,6,6-pentamethylpiperidin-4-yl)-2,4-pyrimidinediamine] showed an IC50 of less than 500 nM. In the case of `Cn1nnn(-c2cc(Nc3ncc(C#N)c(NC4CC(C)(C)NC(C)(C)C4)n3)cc(F)c2C2CC2)c1=O` [I-62, N2-(4-cyclopropyl-5-fluoro-3-(4-methyl-4,5-dihydro-5-oxo-1H-tetrazol-1-yl)phenyl)-N4-(2,2,6,6-tetramethylpiperidin-4-yl)pyrimidine-2,4-diamino-5-carbonitrile], the IC50 is reported as less than 500 nM. In the case of `CC1(C)CC(Nc2nc(Nc3ccc(F)c(-n4nn[nH]c4=O)c3)ncc2F)CC(C)(C)N1` [I-2, 5-fluoro-n2-{4-fluoro-[3-(4-h)-1,2,3,4-tetrazol-5-one-1-yl]}phenyl-n4-(2,2,6,6-tetramethylpiperidin-4-yl)-2,4-pyrimidinediamine], the IC50 is reported as greater than 25000 nM. `Cn1nnn(-c2cc(Nc3ncc(F)c(NC4CC(C)(C)NC(C)(C)C4)n3)ccc2F)c1=O` [I-4] gave an IC50 of less than 500 nM. For `Cn1nnn(-c2cc(Nc3ncc(F)c(NC4CC(C)(C)NC(C)(C)C4)n3)c(F)cc2C2CC2)c1=O` [I-14], the IC50 was less than 500 nM. `Cn1nnn(-c2cc(Nc3ncc(C(N)=O)c(NC4CC(C)(C)NC(C)(C)C4)n3)cc(F)c2C2CC2)c1=O` [I-57, N2-(4-cyclopropyl-5-fluoro-3-(4-methyl-4,5-dihydro-5-oxo-1H-tetrazol-1-yl)phenyl)-N4-(2,2,6,6-tetramethylpiperidin-4-yl)pyrimidine-2,4-diamino-5-carboxyamide] gave an IC50 of less than 500 nM. `CN1C(C)(C)CC(Nc2nc(Nc3ccc(C4CC4)c(-n4nnn(C)c4=O)c3)ncc2F)CC1(C)C` [I-34, N2-{4-cyclopropyl-[3-(4-methyl)-1,2,3,4-tetrazol-5-one-1-yl]}phenyl-5-fluoro-N4-(1,2,2,6,6-pentamethylpiperidin-4-yl)-2,4-pyrimidinediamine] showed an IC50 of less than 500 nM. With `CN1C(C)(C)CC(Nc2nc(Nc3ccc(OC(C)(C)C(F)(F)F)c(-n4nnn(C)c4=O)c3)ncc2F)CC1(C)C` [I-18, 1-(2-(1,1,1-trifluoro-2-methylpropan-2-yloxy)-5-(4-(1,2,2,6,6-pentamethylpiperidin-4-ylamino)-5-fluoropyrimidin-2-ylamino)phenyl)-4-methyl-1H-tetrazol-5(4H)-one] the IC50 was less than 500 nM. In the case of `Cn1nnn(-c2cc(Nc3ncc(F)c(NC4CC(C)(C)NC(C)(C)C4)n3)ccc2OCC2(C)COC2)c1=O` [I-28, 5-fluoro-N2-{4-(3-methyloxetan-3-yl)methody-3-[(4-methyl)-1,2,3,4-tetrazol-5-one-1-yl]}phenyl-N4-(2,2,6,6-tetramethylpiperidin-4-yl)-2,4pyrimidinediamine], the IC50 is reported as less than 500 nM. `Cc1cc(Nc2ncc(F)c(NC3CC(C)(C)N(C)C(C)(C)C3)n2)cc(-n2nnn(C)c2=O)c1C` [I-45, N2-(4,5-dimethyl-3-(4-methyl-4,5-dihydro-5-oxo-1H-tetrazol-1-yl)phenyl)-5-fluoro-N4-(1,2,2,6,6-pentamethylpiperidin-4-yl)pyrimidine-2,4-diamine] gave an IC50 of less than 500 nM. `CN1C(C)(C)CC(Nc2nc(Nc3ccc(OC4COC4)c(-n4nnn(C)c4=O)c3)ncc2F)CC1(C)C` [I-20, 1-(5-(4-(1,2,2,6,6-pentamethylpiperidin-4-ylamino)-5fluoropyrimidine-2-ylamino)-2-(oxetan-3-yloxy)phenyl)-4-methyl-1H-tetrazol-5(4H)-one] was tested, and the IC50 was less than 500 nM. Work on `CN1C(C)(C)CC(Nc2nc(Nc3cc(-n4nnn(C)c4=O)cc(C(F)(F)F)c3)ncc2F)CC1(C)C` [I-47, N2-(3-(4-methyl-4,5-dihydro-5-oxo-1H-tetrazol-1-yl)-5-trifluoromethylphenyl)-5-fluoro-N4-(1,2,2,6,6-pentamethylpiperidin-4-yl)pyrimidine-2,4-diamine] yielded an IC50 of less than 500 nM. `Cc1c(-n2nnn(C)c2=O)cc(Nc2ncc(F)c(NC3CC(C)(C)NC(C)(C)C3)n2)cc1C(F)(F)F` [I-53, N2-(4-methyl-3-(4-methyl-4,5-dihydro-5-oxo-1H-tetrazol-1-yl)-5-trifluoromethylphenyl)-5-fluoro-N4-(2,2,6,6-tetramethylpiperidin-4-yl)pyrimidine-2,5-diamine] showed an IC50 of less than 500 nM. Work on `Cn1nnn(-c2cc(Nc3ncc(F)c(NC4CC(C)(C)NC(C)(C)C4)n3)cc(OC3COC3)c2)c1=O` [I-25, 1-(3-(4-(2,2,6,6-tetramethylpiperidin-4-ylamino)-5-fluoropyrimidin-2-ylamino)-5-(oxetan-3-yloxy)phenyl)-4-methyl-1H-tetrazol-5(4H)-one] yielded an IC50 of less than 500 nM. For `Cn1nnn(-c2cc(Nc3ncc(F)c(NC4CC(C)(C)NC(C)(C)C4)n3)ccc2C#N)c1=O` [I-58, N2-(4-cyano-3-(4-methyl-4,5-dihydro-5-oxo-1H-tetrazol-1-yl)phenyl)-5-fluoro-N4-(2,2,6,6-tetramethylpiperidin-4-yl)pyrimidine-2,4-diamine], the IC50 was less than 500 nM. `Cc1ccc(Nc2ncc(F)c(NC3CC(C)(C)N(C)C(C)(C)C3)n2)cc1-n1nnn(C)c1=O` [I-8, 5-fluoro-n2-{4-methyl-[3-(4-methyl)-1,2,3,4-tetrazol-5-one-1-yl]}phenyl-n4-(1,2,2,6,6-pentamethylpiperidin-4-yl)-2,4-pyrimidinediamine] showed an IC50 of less than 500 nM.
